According to patent publication US10538508B2, “Substituted amino triazoles useful as human chitinase inhibitors” (OncoArendi Therapeutics S.A., priority 2015, dated 2020):
pIC50: −log10 of the molar value.

Molecular target: recombinant human AMCase (Homo sapiens (Human), UniProt Q9BZP6)
Test: Human AMCase Activity Assay
Type: biochemical
Conditions: citrate buffer pH 5.2, 37° C., 60 minutes, read-out: Activity on hAMCase, IC50

Chain of recombinant human AMCase (Q9BZP6 22-476): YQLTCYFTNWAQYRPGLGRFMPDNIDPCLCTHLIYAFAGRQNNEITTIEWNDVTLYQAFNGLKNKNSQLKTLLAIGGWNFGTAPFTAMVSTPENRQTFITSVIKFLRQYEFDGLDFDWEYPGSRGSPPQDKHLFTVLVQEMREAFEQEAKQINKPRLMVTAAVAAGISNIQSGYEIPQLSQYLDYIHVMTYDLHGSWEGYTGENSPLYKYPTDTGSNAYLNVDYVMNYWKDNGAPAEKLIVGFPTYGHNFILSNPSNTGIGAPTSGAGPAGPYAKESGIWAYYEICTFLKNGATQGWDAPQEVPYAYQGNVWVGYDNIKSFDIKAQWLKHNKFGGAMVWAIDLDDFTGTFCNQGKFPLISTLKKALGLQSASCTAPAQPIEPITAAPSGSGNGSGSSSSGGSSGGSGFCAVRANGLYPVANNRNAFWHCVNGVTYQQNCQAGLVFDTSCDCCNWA

pIC50	SMILES
> 7.00	CN1C[C@H](Cc2ccc(Cl)cc2)N(C2CCN(c3nnc(N)[nH]3)CC2)C[C@@H]1Cc1ccc(Cl)cc1 [Example 31, 5-(4-((2S,5S)-2,5-bis(4-chlorobenzyl)-4-methylpiperazin-1-yl)piperidin-1-yl)-4H-1,2,4-triazol-3-amine]
> 7.00	CN1C[C@H](Cc2ccc(Cl)cc2)N(C2CCN(c3nnc(N)[nH]3)CC2)C[C@@H]1CC1CCCCC1 [Example 32, 5-(4-((2 S, 5S)-2-(4-chlorobenzyl)-5-(cyclohexylmethyl)-4-methylpiperazin-1-yl)piperidin-1-yl)-4H-1,2,4-triazol-3-amine]
> 7.00	CC(C)C[C@H]1CN(C2CCN(c3nnc(N)[nH]3)CC2)[C@@H](Cc2ccc(Cl)cc2)CN1C [Example 33, 5-(4-((2S,5S)-2-(4-chlorobenzyl)-5-isobutyl-4-methylpiperazin-1-yl)piperidin-1-yl)-4H-1,2,4-triazol-3-amine]

Molecular target: recombinant human CHIT1 (Homo sapiens (Human), UniProt Q13231)
Sequence (Q13231 22-466): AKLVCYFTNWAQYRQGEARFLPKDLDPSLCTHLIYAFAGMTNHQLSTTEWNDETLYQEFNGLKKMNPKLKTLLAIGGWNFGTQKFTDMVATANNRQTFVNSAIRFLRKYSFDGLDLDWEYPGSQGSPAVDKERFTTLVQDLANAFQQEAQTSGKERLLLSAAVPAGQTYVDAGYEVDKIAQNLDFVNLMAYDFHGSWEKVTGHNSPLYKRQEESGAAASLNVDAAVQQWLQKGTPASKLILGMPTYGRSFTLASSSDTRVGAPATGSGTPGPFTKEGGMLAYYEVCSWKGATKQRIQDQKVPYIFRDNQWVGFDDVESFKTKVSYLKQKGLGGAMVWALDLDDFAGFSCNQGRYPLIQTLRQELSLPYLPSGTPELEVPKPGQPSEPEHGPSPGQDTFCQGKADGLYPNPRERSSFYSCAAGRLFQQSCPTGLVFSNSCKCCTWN
Test: Human CHIT1 Activity Assay
Type: biochemical
Conditions: recombinant human CHIT1, citrate buffer pH 5.2, 37° C., 60 minutes; read-out: Activity on hCHIT1, IC50

SMILES	pIC50
C[C@H]1CN(C2CCN(c3nnc(N)[nH]3)CC2)[C@@H](Cc2ccc(Cl)cc2)CN1S(C)(=O)=O [Example 37, 5-(4-((2S,5S)-2-(4-chlorobenzyl)-5-methyl-4-(methylsulfonyl)piperazin-1-yl)piperidin-1-yl)-4H-1,2,4-triazol-3-amine]	4.00 to 5.00
COC(=O)CN1C[C@H](Cc2ccc(Cl)cc2)N(C2CCN(c3nnc(N)[nH]3)CC2)C[C@@H]1C [Example 40, methyl 2-((2S,5S)-4-(1-(5-amino-4H-1,2,4-triazol-3-yl)piperidin-4-yl)-5-(4-chlorobenzyl)-2-methylpiperazin-1-yl)acetate]	6.00 to 7.00
C[C@H]1CN(C2CCN(c3nnc(N)[nH]3)CC2)[C@@H](Cc2ccc(Cl)cc2)C(C)(C)O1 [Example 53, 5-(4-((3S,6S)-3-(4-chlorobenzyl)-2,2,6-trimethylmorpholino)piperidin-1-yl)-4H-1,2,4-triazol-3-amine]	4.00 to 5.00

More lines, now with the values ahead:

pIC50	SMILES
> 7.00	COC(C)(C)[C@H]1CN(C2CCN(c3nnc(N)[nH]3)CC2)[C@@H](Cc2ccc(Cl)cc2)CO1 [Example 14, 5-(4-((2R,5S)-5-(4-chlorobenzyl)-2-(2-methoxypropan-2-yl)morpholino)piperidin-1-yl)-4H-1,2,4-triazol-3-amine]
4.00 to 5.00	COC(=O)N1C[C@H](Cc2ccc(Cl)cc2)N(C2CCN(c3nnc(N)[nH]3)CC2)C[C@@H]1C [Example 39, methyl (2S,5S)-4-(1-(5-amino-4H-1,2,4-triazol-3-yl)piperidin-4-yl)-5-(4-chlorobenzyl)-2-methylpiperazine-1-carboxylate]
